Measurements taken from US20230286983A1 (4E Therapeutics, Inc., priority 2020, published 2023).
Several values for one entry are separate records, joined by “and”; a condition that tells them apart may be missing. Equal entries are not always repeated. Where two headings read alike, the source gives them in different places. Each block holds one molecule with its values, some of them ahead of it.

Assays:
[1] = Pharmacokinetic study, 4ET-01-021 with IV and PO dosing; type: in vivo, CD-1 male mice; settings: for concentration at 24 h: read-out: Clast; for bioavailability: read-out: F (oral bioavailability)
Procedure: 4ET-01-021 was dissolved in 10% dimethylacetamide (DMA)/90% propylene glycol (PG) for oral dosing and 10% DMI (dimethyl isosorbide)/15% EtOH (ethanol)/35% PG (propylene glycol)/40% NS (normal saline) for IV dosing. CD-1 male mice were dosed with 4ET-01-021 at 1.0 mg/kg (IV), 3.0 mg/kg (PO), or 10.0 mg/kg (PO). Plasma was collected at indicated timepoints and plasma concentration of 4ET-01-021 was measured using liquid chromatography-mass spectrometry/mass spectrometry (LC-MS/MS).
In mice, following IV administration with 1.0 mg/kg, plasma concentrations declined in a multiphasic manner with an initial concentration (Co) of 0.860 μg/mL and a last measurable concentration (Clast) of 19.3 ng/mL at 24 h post dose. […] Results are presented in Table 13; mean values averaged for 3 animals are shown.
Results are presented in Table 14; mean values averaged for 3 animals are shown.
Results are presented in Table 15; mean values averaged for 3 animals are shown.

eIF4E phosphorylation = experiment: In vivo eIF4E phosphorylation in different tissues (Western blot), 4ET-01-021; design: species or system mice; settings: PO 10 mg/kg
Source text: However, 4ET-01-021 minimally-inhibited phosphorylation of eIF4E in the brain, as determined by Western blot analysis of brain tissue from the cortex.

[2] = Liver microsome stability, mouse; type: in vitro ADME; settings: mouse, liver microsomes, mouse liver microsomes, Table 11b; read-out: T1/2
[3] = tested on: eIF4E phosphorylation at Serine 209 in Karpas 299; experiment: eIF4E phosphorylation in Karpas 299 cells (sandwich ELISA); type: cell-based; settings: Homo sapiens, read-out: Karpas 299 cell IC50
Procedure: The ability of MNK inhibitors described herein to inhibit eIF4E phosphorylation at Serine 209 in Karpas 299, Human Non-Hodgkin's Ki-positive Large Cell Lymphoma cell line was tested by sandwich enzyme linked immune-absorbance assay.

[4] = Brain vs plasma concentration, 4ET-03-009 at 10 mg/kg; type: in vivo, mice; settings: 10 mg/kg oral, 2 hours after dosing; for concentration at 2 hours: oral, 10 mg/kg
Procedure: In separate mice administered the same therapy, brain tissue was harvested 2 hours after dosing and brain concentration of the MNK inhibitor was measured by homogenizing brain tissue followed by LC-MS/MS analysis. Plasma concentration was measured as described above.

[5] = target: T1, protein kinase G 2 (PKG2) (Homo sapiens, UniProt Q13237); experiment: Off-target kinase screen PKG2; type: biochemical; settings: 1 μM test compound
T1 sequence (Q13237 1-762): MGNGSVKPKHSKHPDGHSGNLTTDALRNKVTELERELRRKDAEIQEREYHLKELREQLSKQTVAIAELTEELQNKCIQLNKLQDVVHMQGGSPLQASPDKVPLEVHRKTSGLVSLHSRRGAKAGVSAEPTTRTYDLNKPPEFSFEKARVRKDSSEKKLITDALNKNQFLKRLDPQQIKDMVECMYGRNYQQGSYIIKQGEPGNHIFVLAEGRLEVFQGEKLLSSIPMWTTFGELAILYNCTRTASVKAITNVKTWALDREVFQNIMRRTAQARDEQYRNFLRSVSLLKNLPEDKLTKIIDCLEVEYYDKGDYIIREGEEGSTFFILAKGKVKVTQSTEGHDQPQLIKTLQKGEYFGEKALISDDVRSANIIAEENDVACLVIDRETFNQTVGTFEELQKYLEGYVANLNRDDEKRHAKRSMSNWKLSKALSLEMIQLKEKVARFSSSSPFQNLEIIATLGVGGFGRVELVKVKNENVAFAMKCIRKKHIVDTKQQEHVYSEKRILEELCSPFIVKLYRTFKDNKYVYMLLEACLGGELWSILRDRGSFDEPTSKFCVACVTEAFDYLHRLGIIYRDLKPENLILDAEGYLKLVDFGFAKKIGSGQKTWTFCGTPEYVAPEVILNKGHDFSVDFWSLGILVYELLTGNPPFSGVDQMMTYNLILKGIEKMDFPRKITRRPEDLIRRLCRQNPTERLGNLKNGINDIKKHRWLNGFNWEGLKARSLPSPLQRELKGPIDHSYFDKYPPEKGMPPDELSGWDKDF
Source text: These kinases were chosen because they are the only known off-target hit kinases for eFT508. These assays were done using recombinant human kinases (CLK4, DRAK1 and PKG2) in a substrate phosphorylation assay. % activity remaining after MNK inhibitor treatment is indicated in Table 12.

[6] = Liver microsome stability, human; type: in vitro ADME; settings: liver microsomes
[7] = IV 1.0 mg/kg, mean of 3 animals
[8] = male, CD-1, mouse, plasma, po, orally dosed at 3 mg/kg, mean of 3 animals
[9] = male, CD-1, mouse, plasma, po, orally dosed at 10 mg/kg, mean of 3 animals
[10] = male, CD-1, mouse, plasma, IV 1.0 mg/kg, mean of 3 animals
[11] = orally dosed at 3 mg/kg, mean of 3 animals
[12] = orally dosed at 10 mg/kg, mean of 3 animals

AUConf/D [1, 7]: 2420 kg·h/kL
Tlast [1, 7]: 24.0 h
V55 [1, 7]: 3.49 L/kg
AUC(0-inf) ([1]; male, CD-1, mouse, plasma, iv, 1 mg/kg, IV 1.0 mg/kg, mean of 3 animals, read-out: AUCinf): 2420 ng·h/mL
AUC(0-inf) ([1]; male, CD-1, mouse, plasma, iv, 1 mg/kg, IV 1.0 mg/kg, read-out: total systemic exposure (AUCinf)): 2420 ng·h/mL
AUC(0-inf) ([1]; male, CD-1, mouse, plasma, po, 3 mg/kg, oral 3 mg/kg, read-out: total systemic exposure (AUCinf)): 4500 ng·h/mL
AUC(0-inf) ([1]; male, CD-1, mouse, plasma, po, 3 mg/kg, orally dosed at 3 mg/kg, mean of 3 animals, read-out: AUCinf): 4500 ng·h/mL
AUC(0-inf) ([1]; male, CD-1, mouse, plasma, po, 10 mg/kg, oral 10 mg/kg, read-out: total systemic exposure (AUCinf)): 12000 ng·h/mL
AUC(0-inf) ([1]; male, CD-1, mouse, plasma, po, 10 mg/kg, orally dosed at 10 mg/kg, mean of 3 animals, read-out: AUCinf): 12000 ng·h/mL
AUC(0-t) [1, 8]: 4130 ng·h/mL
Cmax [1, 8]: 643 ng/mL
MRT inf [1, 8]: 8.41 h
Tmax [1, 8]: 0.5 h
half-life [1, 8]: 7.11 h
concentration at 24 h [1, 8]: 36.3 ng/mL
bioavailability [1, 8]: 61.9%
AUC(0-t) [1, 9]: 11000 ng·h/mL
Cmax [1, 9]: 1900 ng/mL
MRT inf [1, 9]: 8.51 h
Tmax [1, 9]: 0.25 h
half-life [1, 9]: 7.44 h
concentration at 24 h [1, 9]: 99.5 ng/mL
bioavailability [1, 9]: 49.6%
AUC(0-t) [1, 10]: 2190 ng·h/mL
MRT inf [1, 10]: 8.32 h
half-life [1, 10]: 8.42 h
clearance ([1]; male, CD-1, mouse, plasma, IV 1.0 mg/kg, mean of 3 animals, read-out: CLp): 6.97 mL/min/kg
concentration at 24 h [1, 10]: 19.3 ng/mL
Vd ([1]; male, CD-1, mouse, plasma, IV 1.0 mg/kg, mean of 3 animals, read-out: Vz): 5.1 L/kg
C0 ([1]; male, CD-1, mouse, plasma, IV 1.0 mg/kg, read-out: initial concentration (Co)): 860 ng/mL
AUCinf/D [1, 11]: 1500 kg·h/kL
Tlast [1, 11]: 24 h
AUCinf/D [1, 12]: 1202 kg·h/kL
Tlast [1, 12]: 24 h
half-life [2]: 1.55 h
SMILES: CCC1=CC2(CCC1)NC(=O)c1c(C)cc(Nc3cc(N)ncn3)c(=O)n12 (centres unmarked) [Compound 4ET-01-021, 6′-((6-Aminopyrimidin-4-yl)amino)-3-ethyl-8′-methyl-2′H-spiro[cyclohexane-1,3′-imidazo[1,5-a]pyridin]-2-ene-1′,5′-dione]
eIF4E phosphorylation in the brain (cortex) (eIF4E phosphorylation): minimally-inhibited
eIF4E phosphorylation in DRGs, sciatic nerve, and spleen (eIF4E phosphorylation; 2 hours or 4 hours post dose): significant inhibition of eIF4E phosphorylation

IC50 [3]: 6.2 nM
brain entry [4]: enters the brain very poorly
Tissue Homogenate Conc. n = 3 ([4]; Brain, individual): 5.5 ng/mL and 7.28 ng/mL
Plasma Conc. n = 3 ([4]; Plasma, individual): 292 ng/mL and 337 ng/mL
concentration at 2 hours ([4]; CD-1, mouse, brain homogenate, Brain, individual, read-out: Tissue Homogenate Conc. n = 3): 7.67 ng/mL
concentration at 2 hours ([4]; CD-1, mouse, brain homogenate, Brain, read-out: Tissue Homogenate Conc. Mean): 6.82 ng/mL
concentration at 2 hours ([4]; CD-1, mouse, brain, Brain, read-out: Mean Tissue): 27.3 ng/g
Kp at 2 hours ([4]; CD-1, mouse, brain/plasma, Brain, read-out: Mean Tissue/Plasma Conc. Ratio): 0.083
concentration at 2 hours ([4]; CD-1, mouse, plasma, Plasma, individual, read-out: Plasma Conc. n = 3): 357 ng/mL
concentration at 2 hours ([4]; CD-1, mouse, plasma, Plasma, read-out: Plasma Conc. Mean): 329 ng/mL
remaining activity at 1 µM [5]: 99%
microsomal CLint [6]: 2.16 µL/min/mg
half-life ([6]; read-out: Human liver microsomes t1/2): 10.7 h
SMILES: Cc1cc(Nc2cc(NC(=O)C3CC3)ncn2)c(=O)n2c1C(=O)NC21CCOCC1 [Compound 4ET-03-009, N-(6-((8-Methyl-1,5-dioxo-1,2′,3′,5,5′,6′-hexahydro-2H-spiro[imidazo[1,5-a]pyridine-3,4′-pyran]-6-yl)amino)pyrimidin-4-yl)cyclopropanecarboxamide]
